Results as given in patent publication US20260226056A1, “SUBSTITUTED 1H-PYRAZOLE-4-CARBOXAMIDES AS SARM1 INHIBITORS” (DISARM THERAPEUTICS, INC., priority 2023, published 2026).

target: T1, hSARM1 (Homo sapiens, UniProt Q6SZW1); assay: ARM-SAM-TIR SARM1 IC50 Assay (NADase activity, NAD+ cleavage, RapidFire MS); type: biochemical; conditions: ARM-SAM-TIR lysate 5 μg/mL, 2 hrs. pre-incubation with compound, 5 μM NAD+, 2 hrs. incubation
T1 construct: This assay makes use of full length SARM1, which encompasses the ARM, SAM and TIR domains; made in house; host or cells: NRK1-HEK293T cells (transient transfection; cleared lysate used as enzyme)
T1 sequence (Q6SZW1 28-724): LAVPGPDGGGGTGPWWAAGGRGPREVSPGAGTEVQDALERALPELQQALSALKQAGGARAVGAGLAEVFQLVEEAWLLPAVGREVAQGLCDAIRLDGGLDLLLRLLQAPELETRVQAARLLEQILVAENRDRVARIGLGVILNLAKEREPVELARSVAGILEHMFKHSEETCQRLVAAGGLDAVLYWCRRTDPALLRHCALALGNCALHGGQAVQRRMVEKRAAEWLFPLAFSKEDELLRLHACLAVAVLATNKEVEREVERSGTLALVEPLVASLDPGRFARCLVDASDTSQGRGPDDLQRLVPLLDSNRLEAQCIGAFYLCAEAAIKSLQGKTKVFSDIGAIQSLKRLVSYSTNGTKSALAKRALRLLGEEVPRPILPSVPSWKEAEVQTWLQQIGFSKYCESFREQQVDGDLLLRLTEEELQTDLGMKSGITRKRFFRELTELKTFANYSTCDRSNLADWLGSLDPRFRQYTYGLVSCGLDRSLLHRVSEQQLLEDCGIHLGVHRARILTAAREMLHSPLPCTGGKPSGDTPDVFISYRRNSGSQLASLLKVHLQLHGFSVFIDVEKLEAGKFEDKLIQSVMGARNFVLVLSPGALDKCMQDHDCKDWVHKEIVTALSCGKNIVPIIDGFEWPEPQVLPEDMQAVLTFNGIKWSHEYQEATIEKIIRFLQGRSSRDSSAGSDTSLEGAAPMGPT
Protocol: This describes an assay of ARM-SAM-TIR NADase activity and use of this assay to measure the efficacy of compounds of the present invention to block SARM1 mediated NAD+ cleavage. This assay was optimized in such a way as to characterize the efficacy of the compounds of the present invention to inhibit SARM1 activity and to calculate an IC50 value for each compound. This assay makes use of full length SARM1, which encompasses the ARM, SAM and TIR domains.
NRK1-HEK293T cells were seeded onto 150 cm^2 plates at 20×10^6 cells per plate. The next day, the cells were transfected with 15 μg ARM-SAM-TIR expression plasmid (SEQ ID NO: 1 as disclosed in WO 2019/236879, Pages 77-81; Paragraph) [0310]).
The cultures were supplemented with 1 mM NR at time of transfection to minimize toxicity from ARM-SAM-TIR overexpression. Forty-eight hours after transfection, cells were harvested, pelleted by centrifugation at 1,000 rpm (Sorvall ST 16R centrifuge, Thermo Fisher), and washed once with cold PBS (0.01 M phosphate buffered saline NaCl 0.138 M; KCl 0.0027 M; pH 7.4). The cells were resuspended in PBS with protease inhibitors (Complete™ protease inhibitor cocktail, Roche product #11873580001) and cell lysates were prepared by sonication (Branson Sonifer 450, output=3, 20 episodes of stroke). The lysates were centrifuged (12,000×g for 10 min at 4° C.) to remove cell debris and the supernatants (containing ARM-SAM-TIR protein) were stored at −80° C. for later use in the in vitro ARM-SAM-TIR NADase assay (see below). Protein concentration was determined by the Bicinchoninic (BCA) method and used to normalize lysate concentrations.
The enzymatic assay was performed in a 384-well polypropylene plate in Dulbecco's PBS buffer in a final assay volume of 20 μL. ARM-SAM-TIR lysate with a final concentration of 5 μg/mL was pre-incubated with the respective compound at 1% DMSO final assay concentration over 2 hrs. at room temperature. The reaction was initiated by addition of 5 μM final assay concentration of NAD+ as substrate. After a 2 hrs. ambient temperature incubation, the reaction was terminated with 40 μL of stop solution of 7.5% trichloroacetic acid in acetonitrile. The NAD+ and ADPR concentrations were analyzed by a RapidFire High Throughput Mass Spectrometry System (Agilent Technologies, Santa Clara, CA) using an API4000 triple quadrupole mass spectrometer (AB Sciex Framingham, MA).
Compounds having an activity designated as “A” provided an IC50<50 nM; compounds having an activity designated as “B” provided an IC50 51-100 nM; compounds having an activity designated as “C” provided an IC50 101-500 nM; compounds having an activity designated as “D” provided an IC50 501-1000 nM; compounds having an activity designated as “E” provided an IC50>1000 nM.

`O=C(CCc1ccc(Cl)nc1)Nc1[nH]nc2c1c(=O)[nH]c1cnccc12` [Example 1, 3-(6-Chloropyridin-3-yl)-N-(4-oxo-4,5-dihydro-2H-pyrazolo[4,3-c][1,7]naphthyridin-3-yl)propanamide] and `O=C(CCc1ccc(F)nc1)Nc1[nH]nc2c1c(=O)[nH]c1cnccc12` [Example 2, 3-(6-Fluoropyridin-3-y1)-N-(4-oxo-4,5-dihydro-2H-pyrazolo[4,3-c][1,7]naphthyridin-3-yl)propanamide] fall in the same range of IC50: 101 to 500 nM for the first, 101 to 500 nM for the second.

`O=C(CCc1ccc(Cl)cc1)Nc1[nH]nc2c1c(=O)[nH]c1cnccc12` [Example 3, 3-(4-Chlorophenyl)-N-(4-oxo-4,5-dihydro-2H-pyrazolo[4,3-c][1,7]naphthyridin-3-yl)propanamide] and `O=C(CCc1ccc(Cl)c(F)c1)Nc1[nH]nc2c1c(=O)[nH]c1cnccc12` [Example 4, 3-(4-Chloro-3-fluorophenyl)-N-(4-oxo-4,5-dihydro-2H-pyrazolo[4,3-c][1,7]naphthyridin-3-yl)propanamide] cannot be ordered by IC50: less than 50 nM for the first, less than 50 nM for the second.

First: O=C(CCc1cnc(Cl)c(F)c1)Nc1[nH]nc2c1c(=O)[nH]c1cnccc12 [Example 5, 3-(6-Chloro-5-fluoro-3-pyridyl)-N-(4-oxo-2,5-dihydropyrazolo[4,3-c][1,7]naphthyridin-3-y1)propanamide]
Second: O=C(CCc1ccc(F)c(F)c1)Nc1[nH]nc2c1c(=O)[nH]c1cnccc12 [Example 6, 3-(3,4-Difluorophenyl)-N-(4-oxo-4,5-dihydro-2H-pyrazolo[4,3-c][1,7]naphthyridin-3-yl)propanamide]
The IC50 of the first is higher: 51 to 100 nM for the first, less than 50 nM for the second.

Compared with `NC(=O)c1c(-c2ccncc2)n[nH]c1NC(=O)CCc1ccc(Cl)c(Cl)c1` [Example 7, 5-(3-(3,4-Dichlorophenyl)propanamido)-3-(pyridin-4-yl)-1H-pyrazole-4-carboxamide], `NC(=O)c1c(-c2ccncc2)n[nH]c1NC(=O)CCc1ccc(Cl)c(F)c1` [Example 14, 5-(3-(4-Chloro-3-fluorophenyl)propanamido)-3-(pyridin-4-yl)-1H-pyrazole-4-carboxamide] is lower in IC50: 51 to 100 nM for the first, less than 50 nM for the second.

Compared with `NC(=O)c1c(-c2ccncc2)n[nH]c1NC(=O)CCc1ccc(F)c(F)c1` [Example 8, 5-(3-(3,4-Difluorophenyl)propanamido)-3-(pyridin-4-y1)-1H-pyrazole-4-carboxamide], `NC(=O)c1c(-c2ccncc2)n[nH]c1NC(=O)CCc1ccc(Cl)cc1` [Example 13, 5-(3-(4-Chlorophenyl)propanamido)-3-(pyridin-4-yl)-1H-pyrazole-4-carboxamide] is lower in IC50: 101 to 500 nM for the first, less than 50 nM for the second.

First: NC(=O)c1c(-c2ccncc2)n[nH]c1NC(=O)CCc1ccc(Cl)nc1 [Example 9, 5-(3-(6-Chloropyridin-3-yl)propanamido)-3-(pyridin-4-y1)-1H-pyrazole-4-carboxamide]
Second: NC(=O)c1c(-c2ccncc2)n[nH]c1NC(=O)CCc1ccc(F)nc1 [Example 22, 5-(3-(6-Fluoropyridin-3-yl)propanamido)-3-(pyridin-4-yl)-1H-pyrazole-4-carboxamide]
The IC50 of the first is lower: 101 to 500 nM for the first, 501 to 1000 nM for the second.

`NC(=O)c1c(-c2ccncc2)n[nH]c1NC(=O)CCc1ccc(F)cc1` [Example 10, 5-(3-(4-Fluorophenyl)propanamido)-3-(pyridin-4-yl)-1H-pyrazole-4-carboxamide] and `NC(=O)c1c(-c2ccncc2)n[nH]c1NC(=O)CCc1ccc(C(F)(F)F)cc1` [Example 23, 3-(Pyridin-4-y1)-5-(3-(4-(trifluoromethyl)phenyl)propanamido)-1H-pyrazole-4-carboxamide] fall in the same range of IC50: 101 to 500 nM for the first, 101 to 500 nM for the second.

Compared with `NC(=O)c1c(-c2ccncc2)n[nH]c1NC(=O)CCc1cc(F)cc(F)c1` [Example 11, 5-(3-(3,5-Difluorophenyl)propanamido)-3-(pyridin-4-y1)-1H-pyrazole-4-carboxamide-], `NC(=O)c1c(-c2ccncc2)n[nH]c1NC(=O)CCc1cnc(Cl)c(F)c1` [Example 12, 5-(3-(6-Chloro-5-fluoropyridin-3-yl)propanamido)-3-(pyridin-4-yl)-1H-pyrazole-4-carboxamide] is lower in IC50: 501 to 1000 nM for the first, 101 to 500 nM for the second.

`NC(=O)c1c(-c2ccncc2)n[nH]c1NC(=O)CCc1ccc(Cl)s1` [Example 15, 5-(3-(5-Chlorothiophen-2-yl)propanamido)-3-(pyridin-4-y1)-1H-pyrazole-4-carboxamide] and `CNC(=O)c1c(-c2ccncc2)n[nH]c1NC(=O)CCc1ccc(Cl)cc1` [Example 24, 3-(3-(4-chlorophenyl)propanamido)-N-methyl-5-(pyridin-4-yl)-1H-pyrazole-4-carboxamide] fall in the same range of IC50: 101 to 500 nM for the first, 101 to 500 nM for the second.

Compared with `Cc1cnncc1-c1n[nH]c(NC(=O)CCc2ccc(F)nc2)c1C(N)=O` [Example 16, 5-(3-(6-Fluoropyridin-3-yl)propanamido)-3-(5-methylpyridazin-4-yl)-1H-pyrazole-4-carboxamide], `Cc1cnncc1-c1n[nH]c(NC(=O)CCc2ccc(Cl)c(F)c2)c1C(N)=O` [Example 17, 5-(3-(4-Chloro-3-fluorophenyl)propanamido)-3-(5-methylpyridazin-4-y1)-1H-pyrazole-4-carboxamide] is lower in IC50: greater than 1000 nM for the first, 501 to 1000 nM for the second.

`CNC(=O)c1c(-c2ccnnc2)n[nH]c1NC(=O)CCc1ccc(F)nc1` [Example 18, 5-(3-(6-Fluoropyridin-3-yl)propanamido)-N-methyl-3-(pyridazin-4-y1)-1H-pyrazole-4-carboxamide] and `NC(=O)c1c(-c2ccnnc2)n[nH]c1NC(=O)CCc1ccc(F)nc1` [Example 19, 5-(3-(6-Fluoropyridin-3-yl)propanamido)-3-(pyridazin-4-yl)-1H-pyrazole-4-carboxamide] cannot be ordered by IC50: greater than 1000 nM for the first, greater than 1000 nM for the second.

Compared with `NC(=O)c1c(-c2ccnnc2)n[nH]c1NC(=O)CCc1cnc(Cl)c(F)c1` [Example 20, 5-(3-(6-Chloro-5-fluoropyridin-3-yl)propanamido)-3-(pyridazin-4-y1)-1H-pyrazole-4-carboxamide], `NC(=O)c1c(-c2ccnnc2)n[nH]c1NC(=O)CCc1ccc(Cl)c(F)c1` [Example 21, 5-(3-(4-Chloro-3-fluorophenyl)propanamido)-3-(pyridazin-4-yl)-1H-pyrazole-4-carboxamide] is lower in IC50: 101 to 500 nM for the first, 51 to 100 nM for the second.

`O=C1NCN(C(=O)CCc2ccc(Cl)cc2)c2[nH]nc(-c3ccncc3)c21` [Example 25, 7-(3-(4-Chlorophenyl)propanoyl)-3-(pyridin-4-yl)-1,5,6,7-tetrahydro-4H-pyrazolo[3,4-d]pyrimidin-4-one] and `O=C1NCN(C(=O)CCc2ccc(Cl)c(F)c2)c2[nH]nc(-c3ccncc3)c21` [Example 26, 7-(3-(4-Chloro-3-fluorophenyl)propanoy1)-3-(pyridin-4-y1)-1,5,6,7-tetrahydro-4H-pyrazolo[3,4-d]pyrimidin-4-one] fall in the same range of IC50: 101 to 500 nM for the first, 101 to 500 nM for the second.

Compound `O=C1NCN(C(=O)CCc2cnc(Cl)c(F)c2)c2[nH]nc(-c3ccncc3)c21` [Example 27, 7-(3-(6-Chloro-5-fluoropyridin-3-y1)propanoyl)-3-(pyridin-4-y1)-1,5,6,7-tetrahydro-4H-pyrazolo[3,4-d]pyrimidin-4-one] has an IC50 greater than 1000 nM.
